Test results as given in patent US20090298045A1, “Method For Selectively Expanding, Selecting And Enriching Stem/Progenitor Cell Populations” (Tel Hashomer-Medical Research, Infrastructure And Services …, priority 2004, published 2009).

Experiments:
Format in all cases: cell-based, human
[1] = system: CD34+CD38- early stem cell sub-population of UCB derived CD133+ cells; assay: Determination of CD34+CD38- early stem cell subset in cultured CD133+ cells by flow cytometry; details: for CD34+38- cell population with cytostatic agent: colchicine 2.5 ng/ml, one week expansion; for Fold enrichment (CD34+38-): with vs without colchicine 2.5 ng/ml, one week
Method: (§1) Purified CD133^+ cells were cultured in 24-well culture plate at densities of 2-4×10^4 cells in alpha-MEM medium (Biological Industries) supplemented with 10% fetal calf serum (Biological Industries) and the following human recombinant cytokines (Pepro Tech, Inc., Rocky Hill, N.J., USA): Trombopoietin, interleukin-6, FLT-3 ligand and Stem Cell Factor, at final concentration of 50 ng/ml each as well as interleukin-3 and IL2 at 20 ng/ml, in the absence or presence of colchicine in a concentration scale as indicated. Cells were expanded at 37° C. in a humidified atmosphere of 5% CO2 in air.
(§2) The cells were washed with a PBS solution containing 1% BSA and stained (at 4° C. for 30 min) with fluorescein isothiocyanate (FITC)- or phycoerythrin (PE)-conjugated antibodies that are specifically described in the next sections. Cells were washed in the abovementioned buffer and analyzed by flow cytometer (Becman coulter). Cells were passed at a rate of up to 1000 cells/second, using a 488-nm argon laser beam as the light source for excitation.
The percentages of early stem cell subsets were determined from the purified fresh and/or cultured CD133^+ cell fraction. Cells were dually stained with PE anti-CD34 and FITC anti-CD38 (DAKO) for determination of CD34^+ CD38^− cells by flow cytometry analyses with PE anti-CD133^+ antibody (Miltenyi Biotec).

UCB-derived CD133+ cells = assay: Ex vivo expansion of purified UCB-derived CD133+ cells with cytokines, CD133+ cell fraction by flow cytometry; details: for CD133+ cell population with cytostatic agent: colchicine 2.5 ng/ml, two weeks expansion; for Fold enrichment (CD133+): with vs without colchicine 2.5 ng/ml, two weeks
Method: Cells were obtained from human umbilical cord blood (UCB) after normal fall-term delivery. The cells were layered on a Ficoll-Hypaque gradient (1.077 g/ml Sigma), and centrifuged at 500 g for 30 minutes. The mononuclear cells in the interface layer were collected and washed three times in phosphate-buffered saline (PBS; Biological Industries) containing 0.5% Bovine serum albumin (BSA). To purify the CD133^+ cells, the mononuclear cell fraction was subjected to two cycles of immunomagnetic bead separation using a MiniMACS CD133 progenitor cell isolation kit (Miltenyi Biotec,), according to the manufacturer's recommendations.
as §1
(§3) Cultures were depopulated twice a week and a fresh medium in which growth factors and colchicine were added. At various time points, cells were counted after staining with trypan blue and harvested cells were used for enumeration of CD133^+ cells following immunophenotype analysis.
as §2
(§4) The percentage of CD133^+ cell fraction from total cells was determined by flow cytometry using. PE-anti-CD133^+ antibody (Miltenyi Biotec). Fold enrichment was calculated by dividing the CD133^+ cell percentage of culture growing with cytostatic agent by the CD133^+ cell percentage of culture growing without cytostatic agent. Since cultures were depopulated twice a week, the culture volume was calculated by multiplying the actual volume with the number of passages. Fold expansion was calculated by dividing the CD133^+ cell content of the culture by the initial number of cultured CD133^+ cells.

[2] = system: Fresh, enriched CD133+ stem cells; assay: Cell counts and fold expansion of CD133+ stem cells after ex-vivo expansion; details: colchicine 2.5 ng/ml; for Fold expansion of CD133+ cells: 2 weeks vs T0
Method: as §1, §3, §4

[3] = Exp. 1, T0 0.4 × 10^3 CD133+ cells
[4] = Exp. 2, T0 0.2 × 10^3 CD133+ cells
[5] = Exp. 3, T0 0.4 × 10^3 CD133+ cells

COc1cc2c(c(OC)c1OC)-c1ccc(OC)c(=O)cc1[C@@H](NC(C)=O)CC2 [colchicine]
percentage of CD34+CD38- sub-population, treated vs un-treated cultures (in words) ([1]; 1 week in culture): increase in the percentage
CD34+38- cell population with cytostatic agent ([1]; Donor # 3): 15%
Fold enrichment (CD34+38-) ([1]; Donor # 3): 1.7
CD34+38- cell population with cytostatic agent ([1]; Donor # 4): 5%
Fold enrichment (CD34+38-) ([1]; Donor # 4): 10
optimal concentration in which the highest CD133+ cells enrichment was achieved (UCB-derived CD133+ cells; 2 weeks expansion, three independent experiments, FIG. 3): 2.5 ng/mL
CD133+ cell population with cytostatic agent (UCB-derived CD133+ cells; Donor # 1 (first line)): 4%
Fold enrichment (CD133+) (UCB-derived CD133+ cells; Donor # 1 (first line)): 4
CD133+ cell population with cytostatic agent (UCB-derived CD133+ cells; Donor # 1): 7%
Fold enrichment (CD133+) (UCB-derived CD133+ cells; Donor # 1): 7
CD133+ cell population with cytostatic agent (UCB-derived CD133+ cells; Donor # 3): 15%
Fold enrichment (CD133+) (UCB-derived CD133+ cells; Donor # 3): 2.5
CD133+ cell population with cytostatic agent (UCB-derived CD133+ cells; Mean ± SD of three donors): 8.7 ± 5.7%
Fold enrichment (CD133+) (UCB-derived CD133+ cells; Mean ± SD of three donors): 4.5 ± 2.3
enrichment of UCB-derived CD133+ cell-fraction (in words) (UCB-derived CD133+ cells; concentration scale, 2 weeks expansion, FIG. 3): dose-dependent enrichment
CD133+ cells, T(2 weeks), with colchicine [2, 3]: 5.4 × 10^3
Total cells, T(2 weeks), with colchicine [2, 3]: 135 × 10^3
Fold expansion of CD133+ cells ([2]; Exp. 1): (X 13.5)
CD133+ cells, T(2 weeks), with colchicine [2, 4]: 4.7 × 10^3
Total cells, T(2 weeks), with colchicine [2, 4]: 68 × 10^3
Fold expansion of CD133+ cells ([2]; Exp. 2): (X 23.5)
CD133+ cells, T(2 weeks), with colchicine [2, 5]: 4.1 × 10^3
Total cells, T(2 weeks), with colchicine [2, 5]: 27 × 10^3
Fold expansion of CD133+ cells ([2]; Exp. 3): (X 10.2)
